Measured values reported in ChEMBL document CHEMBL1139224, “Discovery and metabolic stabilization of potent and selective 2-amino-N-(adamant-2-yl) acetamide 11beta-hydroxysteroid dehydrogenase type 1 inhibitors” (J Med Chem, 2007).

Columns and labels:
[1] = molecular target: T1, 11-beta-hydroxysteroid dehydrogenase 1 (Homo sapiens, UniProt P28845); assay: Inhibition of human 11beta-HSD1 expressed in Escherichia coli by SPA
[2] = Intrinsic clearance in human liver microsomes at 1 uM; assay type: ADME, Microsome
[3] = molecular target: T1, 11-beta-hydroxysteroid dehydrogenase 1; assay: Inhibition of human 11beta-HSD1 expressed in HEK293 cells by FPIA; assay type: cell-based
[4] = molecular target: 11-beta-hydroxysteroid dehydrogenase 1 (Mus musculus, UniProt P50172); assay: Inhibition of mouse 11beta-HSD1 expressed in Escherichia coli by SPA
Sequence of 11-beta-hydroxysteroid dehydrogenase 1 (Mus musculus, UniProt P50172) (P50172 whole entry): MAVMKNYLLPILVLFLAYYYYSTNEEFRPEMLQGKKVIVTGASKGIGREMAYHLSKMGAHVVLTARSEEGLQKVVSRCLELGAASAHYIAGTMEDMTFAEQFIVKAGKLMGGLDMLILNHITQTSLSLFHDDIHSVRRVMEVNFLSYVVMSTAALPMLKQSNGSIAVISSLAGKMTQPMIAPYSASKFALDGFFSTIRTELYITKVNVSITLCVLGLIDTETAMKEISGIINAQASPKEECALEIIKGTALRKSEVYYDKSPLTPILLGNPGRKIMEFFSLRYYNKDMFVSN

[5] = molecular target: T2, 11-beta-hydroxysteroid dehydrogenase type 2 (Homo sapiens, UniProt P80365); assay: Inhibitory activity against human 11beta-HSD2 by SPA
T2 sequence (P80365 whole entry): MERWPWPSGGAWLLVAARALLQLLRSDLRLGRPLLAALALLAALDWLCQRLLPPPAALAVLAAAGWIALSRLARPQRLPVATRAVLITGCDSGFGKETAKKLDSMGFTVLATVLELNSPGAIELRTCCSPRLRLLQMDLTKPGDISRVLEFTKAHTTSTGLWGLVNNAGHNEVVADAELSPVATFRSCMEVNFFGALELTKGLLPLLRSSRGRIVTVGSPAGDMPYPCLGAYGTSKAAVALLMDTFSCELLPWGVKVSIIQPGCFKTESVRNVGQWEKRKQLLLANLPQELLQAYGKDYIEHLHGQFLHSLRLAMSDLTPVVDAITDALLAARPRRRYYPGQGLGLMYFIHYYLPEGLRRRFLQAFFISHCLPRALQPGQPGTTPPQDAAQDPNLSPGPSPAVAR

[6] = Intrinsic clearance in mouse liver microsomes at 1 uM; assay type: ADME, Microsome
[7] = molecular target: T3, 11-beta-hydroxysteroid dehydrogenase type 2 (Mus musculus, UniProt P51661); assay: Inhibitory activity against mouse 11beta-HSD2 by SPA
T3 sequence (P51661 whole entry): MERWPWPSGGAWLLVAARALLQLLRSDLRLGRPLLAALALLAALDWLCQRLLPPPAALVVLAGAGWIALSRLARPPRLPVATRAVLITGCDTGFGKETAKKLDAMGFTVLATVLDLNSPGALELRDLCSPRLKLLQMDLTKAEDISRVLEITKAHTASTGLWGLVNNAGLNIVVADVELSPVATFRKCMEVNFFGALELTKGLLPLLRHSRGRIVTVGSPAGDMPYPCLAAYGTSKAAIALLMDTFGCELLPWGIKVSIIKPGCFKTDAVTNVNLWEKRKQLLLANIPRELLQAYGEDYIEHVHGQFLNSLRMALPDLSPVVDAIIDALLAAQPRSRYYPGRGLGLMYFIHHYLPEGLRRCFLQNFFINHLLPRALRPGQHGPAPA

[8] = molecular target: 11-beta-hydroxysteroid dehydrogenase 1 (Rattus norvegicus, UniProt P16232); assay: Inhibitory activity against rat 11beta-HSD1
Sequence of 11-beta-hydroxysteroid dehydrogenase 1 (Rattus norvegicus, UniProt P16232) (P16232 whole entry): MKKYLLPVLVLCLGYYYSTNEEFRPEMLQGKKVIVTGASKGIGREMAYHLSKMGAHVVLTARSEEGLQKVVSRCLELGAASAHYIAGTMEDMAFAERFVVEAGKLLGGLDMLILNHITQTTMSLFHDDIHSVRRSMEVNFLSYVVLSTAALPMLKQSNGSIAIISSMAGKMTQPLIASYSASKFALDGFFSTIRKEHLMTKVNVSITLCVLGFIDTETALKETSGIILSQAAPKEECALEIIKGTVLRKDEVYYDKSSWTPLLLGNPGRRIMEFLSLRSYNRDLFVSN

[9] = Half life in mouse at 10 mg/kg, po; assay type: ADME, organism-based; design: dose 10 mg/kg, route oral; conditions: in vivo
[10] = Plasma clearance in mouse at 10 mg/kg, iv; assay type: ADME, organism-based; design: dose 10 mg/kg, route intravenous
[11] = Oral bioavailability in mouse at 10 mg/kg, po; assay type: ADME, organism-based; conditions: in vivo
[12] = Half life in mouse at 10 mg/kg, iv; assay type: ADME, organism-based; design: dose 10 mg/kg, route intravenous; conditions: in vivo
[13] = Volume of distribution in mouse at 10 mg/kg, iv; assay type: ADME, organism-based; design: dose 10 mg/kg, route intravenous; conditions: in vivo, read-out: Vdss
[14] = molecular target: T4, 11-beta-hydroxysteroid dehydrogenase type 2 (Rattus norvegicus, UniProt P50233); assay: Inhibitory activity against rat 11beta-HSD2
T4 sequence (P50233 whole entry): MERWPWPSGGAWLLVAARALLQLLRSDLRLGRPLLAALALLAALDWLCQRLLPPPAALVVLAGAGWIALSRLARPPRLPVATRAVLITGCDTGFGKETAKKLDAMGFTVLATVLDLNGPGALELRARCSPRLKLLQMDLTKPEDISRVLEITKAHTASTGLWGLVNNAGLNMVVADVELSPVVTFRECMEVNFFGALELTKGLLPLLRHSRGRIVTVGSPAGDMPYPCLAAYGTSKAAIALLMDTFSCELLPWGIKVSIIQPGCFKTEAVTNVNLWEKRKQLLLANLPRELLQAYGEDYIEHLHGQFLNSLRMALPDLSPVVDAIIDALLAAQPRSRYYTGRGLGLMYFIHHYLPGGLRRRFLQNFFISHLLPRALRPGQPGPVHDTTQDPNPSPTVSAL

Mus musculus = assay: AUC in mouse at 10 mg/kg, po; assay type: ADME, organism-based, Plasma; design: dose 10 mg/kg, route oral; conditions: in vivo
[15] = Intrinsic clearance in rat liver microsomes at 1 uM; assay type: ADME, Microsome

T1 sequence (P28845 whole entry): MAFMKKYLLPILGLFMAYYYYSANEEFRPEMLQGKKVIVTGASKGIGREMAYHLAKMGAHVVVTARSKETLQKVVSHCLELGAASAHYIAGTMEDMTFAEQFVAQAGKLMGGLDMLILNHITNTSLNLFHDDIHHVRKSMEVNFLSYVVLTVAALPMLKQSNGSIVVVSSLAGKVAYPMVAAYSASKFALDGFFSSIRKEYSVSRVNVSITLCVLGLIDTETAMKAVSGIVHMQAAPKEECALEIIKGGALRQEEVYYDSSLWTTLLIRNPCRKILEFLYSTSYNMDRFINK

| SMILES | Ki [1] | CLint scaled at 1 µM [2] | IC50 [3] | Ki [4] | IC50 [5] | CLint scaled at 1 µM [6] | IC50 [7] | Ki [8] | half-life [9] | clearance [10] | bioavailability [11] | half-life [12] | Vd [13] | IC50 [14] | AUC (Mus musculus) | CLint scaled at 1 µM [15] |
| --- | --- | --- | --- | --- | --- | --- | --- | --- | --- | --- | --- | --- | --- | --- | --- | --- |
| N#Cc1cccnc1N1CCN(CC(=O)NC2C3CC4CC(C3)CC2C4)CC1 (configuration not stated) | 14 nM | 1830 mL/min/kg | 260 nM | 53 nM | > 100000 nM | 6330 mL/min/kg | > 100000 nM |  |  |  |  |  |  |  |  |  |
| O=C(CN1CCN(c2ccc(C(F)(F)F)cn2)CC1)N[C@H]1C2CC3CC1C[C@@](F)(C3)C2 | 26 nM | 233 mL/min/kg | 450 nM | 110 nM | > 100000 nM | < 100 mL/min/kg | > 100000 nM |  |  |  |  |  |  |  |  |  |
| CC(C(=O)N[C@H]1C2CC3CC1C[C@](O)(C3)C2)N1CC(Oc2ccccc2F)C1 (some centres not stated) |  | < 16.7 mL/min/kg |  | 7 nM |  | 383 mL/min/kg | > 100000 nM | 52 nM | 60 min | 120 mL/min/kg | 58% | 18 min | 1.2 L/kg | > 100000 nM | 0.8 ug/hr.ml | 66.7 mL/min/kg |
| CC(C(=O)N[C@H]1C2CC3CC1C[C@](O)(C3)C2)N1CCc2ccc3c(c2CC1)OCO3 (some centres not stated) | 4 nM | 33.3 mL/min/kg | 21 nM | 5 nM | 62000 nM | 333 mL/min/kg | > 100000 nM | 13 nM | 252 min | 155 mL/min/kg | 19% | 30 min | 2.7 L/kg | > 100000 nM | 0.2 ug/hr.ml | 567 mL/min/kg |
| O=C(CN1CCN(c2ccc(C(F)(F)F)cn2)CC1)NC1C2CC3CC(C2)CC1C3 (configuration not stated) |  | 167 mL/min/kg |  | 51 nM |  | 2370 mL/min/kg |  |  |  |  |  |  |  |  |  |  |
| CC(C(=O)N[C@H]1C2C[C@@]3(O)CC1C[C@@](O)(C2)C3)N1CCN(c2ccc(C(F)(F)F)cn2)CC1 (mixture of isomers) |  | < 16.7 mL/min/kg |  | 4100 nM |  | < 100 mL/min/kg |  |  |  |  |  |  |  |  |  |  |
| C[C@H](C(=O)N[C@H]1C2CC3CC1C[C@](O)(C3)C2)N1CC[C@@H](F)C1 | 12 nM | < 16.7 mL/min/kg | 180 nM | 9 nM | > 100000 nM | < 100 mL/min/kg | > 100000 nM |  |  |  |  |  |  |  |  |  |
| CC(C(=O)N[C@H]1C2C[C@]3(O)CC1C[C@](F)(C2)C3)N1CCN(c2ccc(C(F)(F)F)cn2)CC1 (mixture of isomers) |  | 16.7 mL/min/kg |  | 910 nM |  | 933 mL/min/kg |  |  |  |  |  |  |  |  |  |  |
| C[C@@H](C(=O)N[C@H]1C2CC3CC1C[C@](O)(C3)C2)N1CCN(c2ccc(C(F)(F)F)cn2)CC1 (stereo in doubt; (R)-22f) | 4 nM | 16.7 mL/min/kg | 26 nM | 5 nM |  |  |  |  |  |  |  |  |  |  |  |  |
| O=C(CN1CCN(c2ccc(C(F)(F)F)cn2)CC1)N[C@H]1C2CC3CC1C[C@](F)(C3)C2 | 32 nM | 33.3 mL/min/kg | 550 nM | 120 nM | > 20000 nM | 2270 mL/min/kg | > 100000 nM |  |  |  |  |  |  |  |  |  |
| O=C(CN1CCN(c2ccc(C(F)(F)F)cn2)CC1)NC1C2CC3CC(C2)CC1(O)C3 (racemic) | 180 nM | 217 mL/min/kg | > 10000 nM | 110 nM | > 100000 nM | 5130 mL/min/kg | > 100000 nM |  |  |  |  |  |  |  |  |  |
